Laboratory results reported in ChEMBL document CHEMBL1125239, “Synthesis and biological evaluation of 5-deazaisofolic acid, 5-deaza-5,6,7,8-tetrahydroisofolic acid, and their N9-substituted analogues” (J Med Chem, 1991).

Experiments:
Thymidylate synthase = Thymidylate synthase (Homo sapiens, UniProt P04818); test: Inhibition of thymidylate synthase (TS) in human; details: read-out: I50
MOLT-4 = test: Inhibition of the uptake of [3H]MTX influx into MOLT-4 cells.; assay type: functional, cell-based, Homo sapiens
MCF7 = test: Effective dose which is required to inhibit 50% of the cell growth of MCF-7 cells in culture.; assay type: functional; details: Homo sapiens, read-out: ED50 (the source's name)
Sus scrofa [1] = species on record: Sus scrofa; test: (§1) Compound was evaluated for the substrate activity for hog liver Folyl-polyglutamate synthase
[2] = target: Bifunctional purine biosynthesis protein ATIC (Homo sapiens, UniProt P31939); test: Inhibition of 5-aminoimidazole-4-carboxamide AICAR formyltransferase in MOLT-4 cells; assay type: cell-based; details: read-out: I50
Dihydrofolate reductase = target: T1, Dihydrofolate reductase (Homo sapiens, UniProt P00374); test: Inhibition of dihydrofolate reductase (DHFR) in WIL2 cells; assay type: cell-based; details: read-out: I50
T1 sequence (P00374 whole entry): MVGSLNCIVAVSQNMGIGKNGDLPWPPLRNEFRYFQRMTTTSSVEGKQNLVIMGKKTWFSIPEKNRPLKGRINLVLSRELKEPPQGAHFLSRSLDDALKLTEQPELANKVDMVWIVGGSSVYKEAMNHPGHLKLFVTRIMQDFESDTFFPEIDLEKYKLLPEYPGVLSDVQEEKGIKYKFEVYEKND

[3] = Ratio of relative Vmax values to that of apparent Km values.; assay type: ADME
[4] = tested on: Folyl-polyglutamate synthase; test: as §1; assay type: ADME, tissue-based, Sus scrofa; details: pig, hog liver folylpolyglutamate synthase; read-out: Km app
Sus scrofa [5] = species on record: Sus scrofa; test: Compound was evaluated for the substrate activity for hog liver […] synthetase

Sequence of Bifunctional purine biosynthesis protein ATIC (P31939 whole entry): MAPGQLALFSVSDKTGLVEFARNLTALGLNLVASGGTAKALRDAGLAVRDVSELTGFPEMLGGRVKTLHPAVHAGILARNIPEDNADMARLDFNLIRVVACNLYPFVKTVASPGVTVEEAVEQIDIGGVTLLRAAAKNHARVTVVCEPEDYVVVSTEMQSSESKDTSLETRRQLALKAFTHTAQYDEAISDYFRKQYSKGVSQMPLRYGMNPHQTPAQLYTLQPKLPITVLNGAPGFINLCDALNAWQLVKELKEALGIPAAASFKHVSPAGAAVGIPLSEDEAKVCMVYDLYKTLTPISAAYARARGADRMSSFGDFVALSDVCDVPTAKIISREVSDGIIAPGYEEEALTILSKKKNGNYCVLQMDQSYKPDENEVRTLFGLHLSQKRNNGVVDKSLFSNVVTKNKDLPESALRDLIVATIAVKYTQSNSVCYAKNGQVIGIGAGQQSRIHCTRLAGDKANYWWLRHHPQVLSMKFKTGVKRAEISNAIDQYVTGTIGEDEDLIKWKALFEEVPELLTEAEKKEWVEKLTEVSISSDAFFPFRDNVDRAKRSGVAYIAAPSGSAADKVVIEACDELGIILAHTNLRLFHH
Sequence of Thymidylate synthase (P04818 whole entry): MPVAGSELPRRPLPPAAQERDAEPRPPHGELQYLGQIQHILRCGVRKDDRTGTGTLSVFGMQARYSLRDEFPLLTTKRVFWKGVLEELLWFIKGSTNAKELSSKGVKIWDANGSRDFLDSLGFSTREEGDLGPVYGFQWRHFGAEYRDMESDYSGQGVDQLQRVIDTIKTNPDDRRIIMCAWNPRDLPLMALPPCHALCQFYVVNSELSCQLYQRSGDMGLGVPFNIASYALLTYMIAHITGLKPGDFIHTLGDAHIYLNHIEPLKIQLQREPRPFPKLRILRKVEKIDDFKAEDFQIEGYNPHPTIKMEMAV

Compound: Nc1nc(O)c2cc(NCc3ccc(C(=O)NC(CCC(=O)O)C(=O)O)cc3)cnc2n1 (configuration not stated)
- IC50 (Thymidylate synthase): 7.1 µM
- Ki (MOLT-4): > 30 µM
- EC50 (MCF7): > 100 µM
- Km (Sus scrofa [1]): 133 µM
- IC50 [2]: 62.8 µM
- IC50 (Dihydrofolate reductase): 0.21 µM

Compound: Nc1nc(N)c(CCCNc2ccc(C(=O)N[C@@H](CCC(=O)O)C(=O)O)cc2)c(O)n1
- IC50 (Thymidylate synthase): > 100 µM
- Ki (MOLT-4): 1 µM
- Ratio [3]: 14.9
- EC50 (MCF7): 0.037 µM
- IC50 (Dihydrofolate reductase): > 100 µM
- Km [4]: 6.7 µM

Compound: Nc1nc(O)c2c(n1)NCC(CCc1ccc(C(=O)NC(CCC(=O)O)C(=O)O)cc1)C2 (configuration not stated)
- IC50 (Thymidylate synthase): > 1000 µM
- Ki (MOLT-4): 1.5 µM
- EC50 (MCF7): 0.018 µM
- Km (Sus scrofa [1]): 17.5 µM
- IC50 (Dihydrofolate reductase): > 100 µM

Compound: Nc1nc(O)c2c(n1)NCC(NCc1ccc(C(=O)NC(CCC(=O)O)C(=O)O)cc1)C2 (configuration not stated)
- IC50 (Thymidylate synthase): > 100 µM
- Ki (MOLT-4): 17.5 µM
- Ratio [3]: 1
- EC50 (MCF7): 1.2 µM
- Km (Sus scrofa [1]): 67.4 µM
- IC50 [2]: > 100 µM
- IC50 (Dihydrofolate reductase): > 1000 µM

Compound: CN(Cc1ccc(C(=O)NC(CCC(=O)O)C(=O)O)cc1)c1cnc2nc(N)nc(O)c2c1 (configuration not stated)
- IC50 (Thymidylate synthase): 0.48 µM
- Ratio [3]: 0.85
- EC50 (MCF7): 35 µM
- Km (Sus scrofa [1]): 55.3 µM
- IC50 [2]: 141 µM
- IC50 (Dihydrofolate reductase): 0.25 µM

Compound: CN(Cc1ccc(C(=O)NC(CCC(=O)O)C(=O)O)cc1)C1CNc2nc(N)nc(O)c2C1 (configuration not stated)
- IC50 (Thymidylate synthase): > 100 µM
- Ki (MOLT-4): 22 µM
- Ratio [3]: 7
- EC50 (MCF7): 4.5 µM
- IC50 [2]: > 100 µM
- IC50 (Dihydrofolate reductase): > 1000 µM
- Km (Sus scrofa [5]): 9.4 µM

Compound: Nc1nc(O)c2cc(N(C=O)Cc3ccc(C(=O)NC(CCC(=O)O)C(=O)O)cc3)cnc2n1 (configuration not stated)
- IC50 (Thymidylate synthase): 28.8 µM
- EC50 (MCF7): > 100 µM
- Km (Sus scrofa [1]): > 100 µM
- IC50 [2]: 49.9 µM
- IC50 (Dihydrofolate reductase): 1.95 µM
